Values joined by “and” are separate entries in the source; they are usually repeats but may differ in a detail not shown here. Equal entries are not always repeated.
Key:
Serotonin, 5HT1D = tested on: T1, Serotonin, 5HT1D; assay: Radio-ligand binding assay, Serotonin 5HT1D; conditions: 10 μM l-THBr; radioligand [3H]5-CT
T1 construct: Caliper Lifescience
Protocol: (§1) To determine the possible targets of l-THBr action, the binding affinities of l-THBr to neurotransmitter receptors known to be involved in sedation, hypnosis and anxiety were investigated. Radio-ligand binding assays were performed by Caliper Lifescience (Hopkinton, MA, USA). The screening was carried out at a concentration of 10 μM l–THBr to test its ability to inhibit the binding of radioligands to their corresponding receptors. The results were expressed as percentage of inhibition of labeled ligand binding to individual receptors. Significant binding activity was defined as ≥50%.

[1] = tested on: Glutamate, Kainate Site (Ionotropic); assay: Radio-ligand binding assay, Glutamate Kainate site; conditions: 10 μM l-THBr; radioligand [3H]Kainic acid
Protocol: as §1

[2] = target: T2, 5-HT1A receptors in rat hippocampus (Rattus norvegicus, UniProt P19327); assay: [35S]GTPγS assay for 5-HT1A receptor activity in rat hippocampus; assay type: biochemical; conditions: rat hippocampus membranes; read-out: EC50, increase in [35S]GTPγS binding
T2 construct: rat hippocampal tissues highly expressing 5-HT1A receptors were prepared as previously described; from tissue; host or cells: SD rat hippocampus membranes
Excerpt: D2-D4 dopamine receptors and 5-HT1A serotonin receptors are Gαi-coupled receptors that mediate inhibitory neurotransmission. We conducted [^35S]GTPγS assays to determine the agonist or antagonist properties of l-THBr at D2 dopamine receptors or 5-HT1A serotonin receptors. HEK293 cells stably expressing D2 receptors were provided by the Beijing Institute of Pharmacology and Toxicology (Beijing, China). The membrane preparation of D2-expressing HEK293 cells and rat hippocampal tissues highly expressing 5-HT1A receptors were prepared as previously described. Briefly, 10 SD rats were anesthetized and decapitated, and the hippocampi were quickly dissected and stored at -80°C until use. D2 receptor-expressing HEK293 cells and the hippocampal tissue were each homogenized at 4°C in 50 mM Tris-HCl buffer (pH 7.4). The homogenates were centrifuged at 2500 × g for 6 min, and the supernatant was further centrifuged for 20 min at 40000 × g. Membranes were re-suspended in Tris-HCl buffer and stored at -80°C until use.
[^35S]GTPγS assays were performed in a total volume of 0.5 ml at 4°C. […] Bound radioactivity was determined by liquid scintillation counting. Drug effects were expressed as drug-induced increase in binding over basal binding (binding in the absence of drugs). […] The inhibitory effect of l–THBr was determined by a similar equation to obtain the IC50 values.

[3] = tested on: T3, GABA A, BDZ, Alpha 1 site; assay: Radio-ligand binding assay, GABA A BDZ alpha 1 site; conditions: 10 μM l-THBr; radioligand [3H]Flunitrazepam
T3 construct: Caliper Lifescience
Protocol: as §1

Serotonin, 5HT4 = tested on: T4, Serotonin, 5HT4; assay: Radio-ligand binding assay, Serotonin 5HT4; conditions: 10 μM l-THBr; radioligand [3H] 113808
T4 construct: Caliper Lifescience
Protocol: as §1

male CD-1 ICR mice [4] = assay: Light-dark box test; assay type: in vivo; conditions: l-THBr 1 or 5 mg/kg i.p., 30 min before test, P < 0.05 vs vehicle
Excerpt: The light-dark box test is a sensitive model to detect activity in disorders related to anxiety, based on the innate aversion of rodents to brightly lit areas and on their spontaneous exploratory behavior in response to a novel environment. The light-dark transition box is a polypropylene animal cage (44 cm × 21 cm × 21 cm), which is divided into two compartments, a light box (illuminated by a 60 W light source with 1000 lx light intensity) and a dark box. Forty-eight male CD-1 ICR mice were placed in the light box 30 min after l–THBr or DZP injection and allowed to move freely to both boxes for 5 min. The number of transitions between the two boxes were recorded by a video camera.

male CD-1 ICR mice [5] = assay: Locomotor activity test; assay type: in vivo; conditions: l-THBr 1, 5, or 10 mg/kg, i.p., 60 min
Excerpt: The spontaneous activity video analysis system consists of 8 sound-attenuated chambers (40 cm × 40 cm × 65 cm) with a built-in infrared camera. (JL Behave, Shanghai Ji-Liang Software Technology Co., Ltd). During the behavioral tests, the experimenter was outside the testing room, and the chambers were cleaned between successive runs. Forty male CD-1 ICR mice were allowed to acclimate for three days in home cages and were handled for another three days to minimize stress after arrival in the animal facility. On the following day, after habituation to the activity chambers for 60 min, mice were administered vehicle, diazepam (DZP, 2 mg/kg, i.p.) or l–THBr (1, 5, or 10 mg/kg, i.p.) and immediately placed into the test chambers to record their locomotor activity for 60 min.

Dopamine, D2s (h) = tested on: T5, Dopamine, D2s (h); assay: Radio-ligand binding assay, Dopamine D2s; parameters: species or system human; conditions: 10 μM l-THBr
T5 construct: Caliper Lifescience
Protocol: as §1

Serotonin, 5HT1A (h) = tested on: T6, Serotonin, 5HT1A (h); assay: Radio-ligand binding assay, Serotonin 5HT1A; parameters: species or system human; conditions: 10 μM l-THBr
T6 construct: Caliper Lifescience
Protocol: as §1

Dopamine, D3 = tested on: T7, Dopamine, D3; assay: Radio-ligand binding assay, Dopamine D3; conditions: 10 μM l-THBr
T7 construct: Caliper Lifescience
Protocol: as §1

Serotonin, 5HT2C = tested on: T8, Serotonin, 5HT2C; assay: Radio-ligand binding assay, Serotonin 5HT2C; conditions: 10 μM l-THBr; radioligand [3H]Mesulergine
T8 construct: Caliper Lifescience
Protocol: as §1

GABA A, Agonist Site = assay: Radio-ligand binding assay, GABA A agonist site; conditions: 10 μM l-THBr; radioligand [3H]GABA
Protocol: as §1

Serotonin, 5HT6 (h) = tested on: T9, Serotonin, 5HT6 (h); assay: Radio-ligand binding assay, Serotonin 5HT6; parameters: species or system human; conditions: 10 μM l-THBr; radioligand [3H]-LSD
T9 construct: Caliper Lifescience
Protocol: as §1

[6] = tested on: Glutamate, NMDA, Phencyclidine Site (Ionotropic); assay: Radio-ligand binding assay, Glutamate NMDA phencyclidine site; conditions: 10 μM l-THBr; radioligand [3H]TCP
Protocol: as §1

Serotonin Transporter = tested on: T10, Serotonin Transporter; assay: Radio-ligand binding assay, Serotonin Transporter; conditions: 10 μM l-THBr; radioligand [3H]Citalopram,N-Methyl
T10 construct: Caliper Lifescience
Protocol: as §1

Serotonin, 5HT5A (h) = tested on: T11, Serotonin, 5HT5A (h); assay: Radio-ligand binding assay, Serotonin 5HT5A; parameters: species or system human; conditions: 10 μM l-THBr; radioligand [3H]-LSD
T11 construct: Caliper Lifescience
Protocol: as §1

Dopamine Transporter = tested on: T12, Dopamine Transporter; assay: Radio-ligand binding assay, Dopamine Transporter; conditions: 10 μM l-THBr; radioligand [3H]WIN 35,428
T12 construct: Caliper Lifescience
Protocol: as §1

[7] = tested on: Glutamate, AMPA Site (Ionotropic); assay: Radio-ligand binding assay, Glutamate AMPA site; conditions: 10 μM l-THBr; radioligand [3H]AMPA
Protocol: as §1

T2 sequence (P19327 whole entry): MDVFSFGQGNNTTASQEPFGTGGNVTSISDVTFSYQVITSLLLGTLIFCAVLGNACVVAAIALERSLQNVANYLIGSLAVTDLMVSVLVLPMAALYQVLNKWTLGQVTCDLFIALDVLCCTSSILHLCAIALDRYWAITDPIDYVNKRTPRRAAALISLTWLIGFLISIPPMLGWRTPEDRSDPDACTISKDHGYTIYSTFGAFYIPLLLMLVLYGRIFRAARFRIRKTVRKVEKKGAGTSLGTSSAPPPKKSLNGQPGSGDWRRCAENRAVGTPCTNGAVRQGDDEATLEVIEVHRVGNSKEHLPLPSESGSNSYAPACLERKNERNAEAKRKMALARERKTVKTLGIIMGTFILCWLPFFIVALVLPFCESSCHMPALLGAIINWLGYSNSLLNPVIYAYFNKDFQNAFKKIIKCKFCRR

COc1ccc2c(c1O)CN1CCc3cc4c(cc3[C@@H]1C2)OCO4 [l-THBr, levo-tetrahydroberberrubine]
Average inhibition percentage (Serotonin, 5HT1D): 42.28%
Average inhibition percentage [1]: -0.89%
EC50 [2]: 235 nM
Average inhibition percentage [3]: -3.30%
Average inhibition percentage (Serotonin, 5HT4): 32.84%
number of transitions between the light/dark sides (male CD-1 ICR mice [4]): increased
influence on locomotor activity (travel distance) (male CD-1 ICR mice [5]): no influence
Activity (Dopamine, D2s (h)): Yes (Significant binding affinity of l-THBr was defined as greater than 50% inhibition of ligand binding)
Average inhibition percentage (Dopamine, D2s (h); radioligand [3H]-Raclopride): 98.41% and 96.43%
Activity (Serotonin, 5HT1A (h)): Yes (Significant binding affinity of l-THBr was defined as greater than 50% inhibition of ligand binding)
Average inhibition percentage (Serotonin, 5HT1A (h); radioligand [3H]-8-OH-DPAT): 78.31%
Activity (Dopamine, D3): Yes (Significant binding affinity of l-THBr was defined as greater than 50% inhibition of ligand binding)
Average inhibition percentage (Dopamine, D3; radioligand [3H]7-OH-DAPT): 77.61%
Average inhibition percentage (Serotonin, 5HT2C): 30.65%
Average inhibition percentage (GABA A, Agonist Site): 7.89%
Average inhibition percentage (Serotonin, 5HT6 (h)): 22.79%
Average inhibition percentage [6]: -12.74%
Average inhibition percentage (Serotonin Transporter): 34.43%
Average inhibition percentage (Serotonin, 5HT5A (h)): 23.79%
Average inhibition percentage (Dopamine Transporter): 8.8%
Average inhibition percentage [7]: 0.31%
